Source: ChEMBL document CHEMBL1201862, “PubChem BioAssay data set” (2004)
Active and inactive are the calls of the source.

Experiments:
[1] = target: Galanin receptor type 2 (Homo sapiens, UniProt O43603); test: Dose Response cell-based high-throughput screening assay to identify antagonists of galanin receptor 2 (GALR2). [Related pubchem assays: 828, 866 ]; assay type: functional
[2] = viability of PTEN-deleted HCT116 cells – cell-based, HCT116 PTEN knockout, dose response (AID 1047); assay type: functional;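 also: HCT116 colon tumor cells with PTEN knocked out; cells exposed to compound for 60 hours before readout; potency for loss of cell viability measured by luminescence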
[3] = viability of HCT116 lacking mutant beta-catenin – cell-based, human colon tumor, dose response (AID 1045); assay type: functional;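 also: HCT116 colon tumor cells with beta catenin knocked out; cells exposed to compound for 60 hours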
[4] = target: T1, Mannose-6-phosphate isomerase (Homo sapiens, UniProt P34949); test: MPI inhibition at elevated mannose 6-phosphate – biochemical, fluorescence intensity, high mannose 6-phosphate, primary screen (AID 1220)
T1 sequence (P34949 whole entry): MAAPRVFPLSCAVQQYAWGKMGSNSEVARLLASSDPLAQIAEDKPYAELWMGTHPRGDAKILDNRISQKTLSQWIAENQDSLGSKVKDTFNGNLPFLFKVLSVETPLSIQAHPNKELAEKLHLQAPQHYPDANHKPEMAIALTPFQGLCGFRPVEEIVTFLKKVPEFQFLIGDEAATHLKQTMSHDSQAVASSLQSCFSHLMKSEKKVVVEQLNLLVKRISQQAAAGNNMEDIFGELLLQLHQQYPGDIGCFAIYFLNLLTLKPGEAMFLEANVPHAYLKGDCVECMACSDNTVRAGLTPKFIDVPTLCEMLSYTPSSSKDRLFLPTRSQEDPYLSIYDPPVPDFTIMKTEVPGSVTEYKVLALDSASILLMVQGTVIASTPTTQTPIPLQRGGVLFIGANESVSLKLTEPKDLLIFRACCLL

[5] = target: Nonstructural protein 1 (Influenza A virus, UniProt Q194T2); assay type: functional, Influenza A virus (A/California/07/2009(H1N1))
[6] = system: Vero; test: viability of Vero cells under compound – cytotoxicity control for flavivirus capping enzyme inhibitors (AID 588742); assay type: functional; conditions: Chlorocebus sabaeus
[7] = viability loss in HeLa cells – cytotoxicity control for MgcRacGAP inhibitor project, dose response (AID 624300); assay type: functional
[8] = target: T2, Rac GTPase-activating protein 1 (Homo sapiens, UniProt Q9H0H5); test: blockers of MgcRacGAP-driven Rac1 GTP hydrolysis – biochemical, ADP Hunter fluorescence, primary and confirmatory, confirmation (AID 624330); assay type: functional
T2 sequence (Q9H0H5 whole entry): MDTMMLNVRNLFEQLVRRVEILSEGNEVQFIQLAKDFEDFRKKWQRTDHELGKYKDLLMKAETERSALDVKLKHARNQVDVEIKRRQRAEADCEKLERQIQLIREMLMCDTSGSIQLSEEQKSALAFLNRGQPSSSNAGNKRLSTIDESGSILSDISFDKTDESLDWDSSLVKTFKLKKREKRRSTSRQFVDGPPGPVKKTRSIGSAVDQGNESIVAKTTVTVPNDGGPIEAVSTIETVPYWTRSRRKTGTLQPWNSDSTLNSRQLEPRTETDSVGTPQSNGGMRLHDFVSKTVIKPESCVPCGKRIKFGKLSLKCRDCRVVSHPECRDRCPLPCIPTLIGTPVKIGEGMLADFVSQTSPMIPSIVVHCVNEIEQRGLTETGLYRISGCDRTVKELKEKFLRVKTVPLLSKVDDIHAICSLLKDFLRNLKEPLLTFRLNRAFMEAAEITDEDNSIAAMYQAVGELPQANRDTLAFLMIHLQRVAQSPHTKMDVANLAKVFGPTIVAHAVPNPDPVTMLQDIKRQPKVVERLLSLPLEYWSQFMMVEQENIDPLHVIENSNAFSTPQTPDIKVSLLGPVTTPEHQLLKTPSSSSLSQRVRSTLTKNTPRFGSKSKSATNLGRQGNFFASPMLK

[9] = target: T3, Histone-lysine N-methyltransferase NSD2 (Homo sapiens, UniProt O96028); assay type: biochemical
T3 sequence (O96028 whole entry): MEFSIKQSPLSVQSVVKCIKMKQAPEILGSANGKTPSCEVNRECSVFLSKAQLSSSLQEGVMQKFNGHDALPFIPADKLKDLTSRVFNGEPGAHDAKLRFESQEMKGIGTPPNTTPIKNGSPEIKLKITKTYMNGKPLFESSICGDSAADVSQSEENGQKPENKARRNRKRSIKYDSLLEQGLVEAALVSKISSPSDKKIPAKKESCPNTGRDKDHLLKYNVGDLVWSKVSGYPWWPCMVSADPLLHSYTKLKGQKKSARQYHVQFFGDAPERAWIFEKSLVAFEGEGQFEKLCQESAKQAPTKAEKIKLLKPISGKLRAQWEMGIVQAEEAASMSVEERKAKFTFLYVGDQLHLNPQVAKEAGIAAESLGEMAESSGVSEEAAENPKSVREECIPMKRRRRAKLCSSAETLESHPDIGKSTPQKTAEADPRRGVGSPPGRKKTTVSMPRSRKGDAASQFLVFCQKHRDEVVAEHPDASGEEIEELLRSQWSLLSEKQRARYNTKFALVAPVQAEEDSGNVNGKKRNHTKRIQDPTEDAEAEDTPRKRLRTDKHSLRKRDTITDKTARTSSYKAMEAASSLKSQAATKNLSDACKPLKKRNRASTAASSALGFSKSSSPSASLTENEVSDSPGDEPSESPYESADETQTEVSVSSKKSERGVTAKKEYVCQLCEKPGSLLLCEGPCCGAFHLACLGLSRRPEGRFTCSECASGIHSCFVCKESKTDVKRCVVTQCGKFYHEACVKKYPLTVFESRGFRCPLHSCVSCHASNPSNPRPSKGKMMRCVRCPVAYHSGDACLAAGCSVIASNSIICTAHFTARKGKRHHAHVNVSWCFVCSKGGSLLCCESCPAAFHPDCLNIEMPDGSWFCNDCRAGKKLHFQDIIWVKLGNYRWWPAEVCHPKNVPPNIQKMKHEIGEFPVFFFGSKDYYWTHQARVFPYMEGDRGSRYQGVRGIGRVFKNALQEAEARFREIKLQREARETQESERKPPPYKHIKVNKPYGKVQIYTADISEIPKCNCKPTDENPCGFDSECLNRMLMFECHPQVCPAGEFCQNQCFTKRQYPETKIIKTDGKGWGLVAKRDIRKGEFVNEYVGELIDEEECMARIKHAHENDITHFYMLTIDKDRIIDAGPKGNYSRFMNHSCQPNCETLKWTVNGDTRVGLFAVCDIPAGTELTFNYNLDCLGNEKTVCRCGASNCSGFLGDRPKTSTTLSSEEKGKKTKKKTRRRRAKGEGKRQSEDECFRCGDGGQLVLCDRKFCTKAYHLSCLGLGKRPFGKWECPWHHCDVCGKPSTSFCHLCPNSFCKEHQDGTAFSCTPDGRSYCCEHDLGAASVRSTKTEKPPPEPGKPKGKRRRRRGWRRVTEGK

[10] = cells
[11] = antiviral protection against BTV-induced cell death – arbovirus, BSR cells, confirmation (AID 1250); assay type: functional;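 also: protection from viral cytopathic effect measured as cell viability by ATP luminescence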
[12] = target: T4, Neuropeptide Y receptor type 1 (Homo sapiens, UniProt P25929); assay type: functional;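 also: HEK293 cells with a CNG channel challenged with NPY then isoproterenol; potency as antagonist that reverses NPY suppression of cAMP signal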
T4 sequence (P25929 whole entry): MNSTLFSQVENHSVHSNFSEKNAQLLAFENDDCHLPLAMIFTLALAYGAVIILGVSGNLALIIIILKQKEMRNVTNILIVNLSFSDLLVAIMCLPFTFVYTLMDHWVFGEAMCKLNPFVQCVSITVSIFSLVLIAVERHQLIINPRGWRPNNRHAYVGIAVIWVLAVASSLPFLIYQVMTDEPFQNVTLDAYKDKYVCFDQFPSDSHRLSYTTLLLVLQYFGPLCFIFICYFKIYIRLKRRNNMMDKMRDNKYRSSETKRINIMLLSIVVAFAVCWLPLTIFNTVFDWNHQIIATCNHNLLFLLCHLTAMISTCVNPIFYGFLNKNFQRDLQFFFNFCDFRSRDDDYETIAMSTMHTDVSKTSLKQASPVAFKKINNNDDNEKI

[13] = target: T5, Neuropeptide Y receptor type 2 (Homo sapiens, UniProt P49146); assay type: functional, cell-based;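 also: HEK293 cells expressing the receptor and a CNG channel; stimulus was NPY near EC95 followed by isoproterenol to raise cAMP; antagonist potency measured as restoring cAMP signal that NPY suppresses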
T5 sequence (P49146 whole entry): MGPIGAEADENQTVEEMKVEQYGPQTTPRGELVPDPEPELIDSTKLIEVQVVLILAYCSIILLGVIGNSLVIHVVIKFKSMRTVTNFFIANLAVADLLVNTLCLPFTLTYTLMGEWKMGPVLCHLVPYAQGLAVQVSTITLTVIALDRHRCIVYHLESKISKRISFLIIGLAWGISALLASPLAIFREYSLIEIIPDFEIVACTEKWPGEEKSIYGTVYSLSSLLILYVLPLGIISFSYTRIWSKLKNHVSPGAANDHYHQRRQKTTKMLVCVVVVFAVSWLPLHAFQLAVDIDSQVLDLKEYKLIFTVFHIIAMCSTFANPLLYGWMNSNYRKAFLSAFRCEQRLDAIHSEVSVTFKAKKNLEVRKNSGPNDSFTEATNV

[14] = target: Epstein-Barr nuclear antigen 1 (Epstein-Barr virus (strain B95-8) (HHV-4) (Human herpesvirus 4), UniProt P03211); test: inhibition of EBV nuclear antigen 1 DNA binding – biochemical, fluorescence polarization, 1536-well, dose response (AID 2381); set-up: species or system human gammaherpesvirus 4;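 also: fluorescence polarization of a Cy5 DNA probe bound by EBNA-1 protein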
[15] = target: Lytic switch protein BZLF1 (Epstein-Barr virus (strain B95-8) (HHV-4) (Human herpesvirus 4), UniProt P03206); test: inhibition of BZLF1 ZTA DNA binding – biochemical, fluorescence polarization, Epstein-Barr virus, 1536-well, counter-screen for EBNA-1 inhibitor project, dose response (AID 2377); set-up: species or system human gammaherpesvirus 4;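 also: fluorescence polarization of Cy5-labelled ZRE DNA probe bound by purified Zta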
Lytic switch protein BZLF1, sequence (P03206 whole entry): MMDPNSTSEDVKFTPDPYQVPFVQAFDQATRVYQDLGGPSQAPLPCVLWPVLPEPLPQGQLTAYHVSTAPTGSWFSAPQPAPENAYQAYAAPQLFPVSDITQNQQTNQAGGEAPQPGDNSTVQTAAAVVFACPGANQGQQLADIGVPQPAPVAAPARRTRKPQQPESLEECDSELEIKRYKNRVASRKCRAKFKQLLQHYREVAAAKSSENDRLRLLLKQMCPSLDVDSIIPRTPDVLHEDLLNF

Nonstructural protein 1, sequence (Q194T2 whole entry): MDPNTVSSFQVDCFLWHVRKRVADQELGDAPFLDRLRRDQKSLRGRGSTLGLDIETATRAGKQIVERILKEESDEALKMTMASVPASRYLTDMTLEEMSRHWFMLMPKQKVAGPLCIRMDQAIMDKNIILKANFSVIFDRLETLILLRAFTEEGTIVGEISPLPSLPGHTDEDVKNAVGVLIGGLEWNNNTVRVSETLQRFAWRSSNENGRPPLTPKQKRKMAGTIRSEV
Galanin receptor type 2, sequence (O43603 whole entry): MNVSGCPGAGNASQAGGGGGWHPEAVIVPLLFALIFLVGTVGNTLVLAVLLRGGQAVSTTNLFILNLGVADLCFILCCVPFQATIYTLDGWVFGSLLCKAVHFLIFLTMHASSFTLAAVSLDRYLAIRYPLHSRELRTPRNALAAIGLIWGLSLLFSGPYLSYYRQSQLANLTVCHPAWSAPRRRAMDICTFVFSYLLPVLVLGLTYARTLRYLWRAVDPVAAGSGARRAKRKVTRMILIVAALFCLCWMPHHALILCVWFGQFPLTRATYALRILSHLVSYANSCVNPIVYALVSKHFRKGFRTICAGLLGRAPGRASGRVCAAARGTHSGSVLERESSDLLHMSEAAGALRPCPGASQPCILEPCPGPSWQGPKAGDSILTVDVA
Epstein-Barr nuclear antigen 1, sequence (P03211 whole entry): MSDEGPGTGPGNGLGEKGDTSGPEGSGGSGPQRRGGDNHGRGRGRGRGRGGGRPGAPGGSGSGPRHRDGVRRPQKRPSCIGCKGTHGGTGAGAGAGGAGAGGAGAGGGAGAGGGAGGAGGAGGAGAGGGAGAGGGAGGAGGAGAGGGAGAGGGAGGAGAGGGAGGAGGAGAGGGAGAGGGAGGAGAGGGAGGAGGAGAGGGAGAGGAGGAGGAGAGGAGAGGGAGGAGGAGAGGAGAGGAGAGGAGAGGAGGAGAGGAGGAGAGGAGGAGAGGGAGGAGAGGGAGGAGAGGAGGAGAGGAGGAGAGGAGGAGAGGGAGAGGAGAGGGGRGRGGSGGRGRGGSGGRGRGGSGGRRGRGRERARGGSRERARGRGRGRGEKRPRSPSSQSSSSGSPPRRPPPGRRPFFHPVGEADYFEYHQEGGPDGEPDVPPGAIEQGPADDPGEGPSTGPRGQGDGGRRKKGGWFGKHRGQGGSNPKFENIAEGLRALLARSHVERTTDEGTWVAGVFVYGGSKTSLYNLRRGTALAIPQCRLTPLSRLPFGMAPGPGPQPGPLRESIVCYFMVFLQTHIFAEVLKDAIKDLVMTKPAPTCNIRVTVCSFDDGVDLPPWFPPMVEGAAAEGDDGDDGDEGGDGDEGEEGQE

## CN(C)c1ccc(NC2=C(Cl)C(=O)c3ccccc3C2=O)cc1
[1]
  IC50: 8.84 µM (active)
[2]
  EC50: 6.29 µM (active)
[3]
  EC50: 3.94 µM (active)
[4]
  IC50: > 50 µM (not active)
[5]
  IC50: 7.36 µM (active)
[6]
  CC50: 32.2 µM (active)
[7]
  CC50: 16.1 µM (active)
[8]
  IC50: 122 µM (active)
[9]
  AC50: 5.02 µM (active)

## CCOc1ccc2nc(NC(=O)C(CCSC)NS(=O)(=O)c3cccs3)sc2c1 (stereo unspecified)
[10]
  IC50: 2.48 µM (active)

## CCOc1ccc(CNc2ccc3c(c2)nc(C)n3C)cc1
[11]
  IC50: 26.6 µM (active)
[6]
  CC50: > 40 µM (active)

## N=c1n(Cc2ccc(Cl)cc2)c2ccccc2n1CC(O)c1ccco1 (stereo unspecified)
[12]
  IC50: > 35 µM (not active)
[13]
  IC50: > 35 µM (not active)

## N#C/C(=C\c1cn(Cc2ccccc2F)c2ccccc12)C(=O)NCc1ccco1
[14]
  IC50: 6.53 µM (active)
[15]
  IC50: > 111 µM (not active)
